Patent US10918728B2, “Compositions and methods for increasing efficiency of cardiac metabolism” (IMBRIA PHARMACEUTICALS, INC., priority 2017, dated 2021)

Assay: Stability of CV-8972 in aqueous solution at different concentrations and pH
Type: physicochemical
Protocol: The stability of CV-8972 was analyzed. Aqueous samples containing CV-8972 at different concentrations and pH were incubated for various periods and analyzed.
Form A of CV-8972 were analyzed for stability in aqueous solution. Aqueous samples containing CV-8972 at different concentrations and pH were incubated for various periods and analyzed.

COc1ccc(CN2CCN(CCOC(=O)c3cccnc3)CC2)c(OC)c1OC.Cl.O [276-MBA-172]
Retention Time 5.6 (CV-8972 purity) (2 mg/mL pH 6 (Form A), 1 hrs, PH 6.1): 97.22
Retention Time 5.6 (CV-8972 purity) (2 mg/mL pH 6 (Form A), 4 hrs, PH 6.1): 97.01
Retention Time 5.6 (CV-8972 purity) (2 mg/mL pH 6 (Form A), 6 hrs, PH 6.1): 96.51
Retention Time 5.6 (CV-8972 purity) (2 mg/mL pH 7 (Form A), 1 hrs, PH 6.8): 95.06
Retention Time 5.6 (CV-8972 purity) (2 mg/mL pH 7 (Form A), 4 hrs, PH 6.7): 93.7
Retention Time 5.6 (CV-8972 purity) (2 mg/mL pH 7 (Form A), 6 hrs, PH 6.7): 92.12
Retention Time 5.6 (CV-8972 purity) (2 mg/mL pH 7 (Form A), 22 hrs, PH 6.8): 91.07
Retention Time 5.6 (CV-8972 purity) (10 mg/mL pH 6 (Form A), 1 hrs, PH 6.8): 93.43
Retention Time 5.6 (CV-8972 purity) (10 mg/mL pH 6 (Form A), 4 hrs, PH 6.8): 91.82
Retention Time 5.6 (CV-8972 purity) (10 mg/mL pH 6 (Form A), 6 hrs, PH 6.7): 91.8
Retention Time 5.6 (CV-8972 purity) (10 mg/mL pH 6 (Form A), 22 hrs, PH 6.7): 89.66
Retention Time 5.6 (CV-8972 purity) (10 mg/mL pH 7 (Form A), 1 hrs, PH 7.2): 89.05
Retention Time 5.6 (CV-8972 purity) (10 mg/mL pH 7 (Form A), 4 hrs, PH 7.1): 86.8
Retention Time 5.6 (CV-8972 purity) (10 mg/mL pH 7 (Form A), 6 hrs, PH 7.1): 84.79

COc1ccc(CN2CCN(CCOC(=O)c3cccnc3)CC2)c(OC)c1OC.Cl.O [289-MBA-15-A]
Retention Time 5.6 (CV-8972 purity) (2 mg/mL pH 6 (Form B), 1 hrs, PH 6.9): 95.1
Retention Time 5.6 (CV-8972 purity) (2 mg/mL pH 6 (Form B), 4 hrs, PH 6.8): 92.45
Retention Time 5.6 (CV-8972 purity) (2 mg/mL pH 6 (Form B), 6 hrs, PH 6.8): 90.65
Retention Time 5.6 (CV-8972 purity) (2 mg/mL pH 6 (Form B), 22 hrs, PH 6.7): 89.15
Retention Time 5.6 (CV-8972 purity) (2 mg/mL pH 7 (Form B), 1 hrs, PH 6.6): 95.46
Retention Time 5.6 (CV-8972 purity) (2 mg/mL pH 7 (Form B), 4 hrs, PH 6.5): 93.92
Retention Time 5.6 (CV-8972 purity) (10 mg/mL pH 6 (Form B), 1 hrs, PH 6.1): 94.81
Retention Time 5.6 (CV-8972 purity) (10 mg/mL pH 6 (Form B), 4 hrs, PH 6): 94.69
Retention Time 5.6 (CV-8972 purity) (10 mg/mL pH 6 (Form B), 6 hrs, PH 5.9): 94.39
Retention Time 5.6 (CV-8972 purity) (10 mg/mL pH 6 (Form B), 22 hrs, PH 5.9): 93.93
Retention Time 5.6 (CV-8972 purity) (10 mg/mL pH 7 (Form B), 1 hrs, PH 7.4): 86.18
Retention Time 5.6 (CV-8972 purity) (10 mg/mL pH 7 (Form B), 4 hrs, PH 7.4): 82.36
Retention Time 5.6 (CV-8972 purity) (10 mg/mL pH 7 (Form B), 6 hrs, PH 7.3): 79.37
